The values that follow come from patent EP2100593B1, “Ternary mixtures with increased collagen synthesis” (Symrise AG, priority 2008, dated 2009).

In this assay the test system is Normal Humane Dermalen Fibroblasten (NHDF). Briefly: Collagen synthesis stimulation in aged NHDF monolayer culture, Sirius Red staining (OD 540 nm). Particulars: 48 h incubation. It counts as cell-based, Human. From the text:
Verantwortlich für die Collagensynthese in der Dermis-Schicht der Haut sind Fibroblasten. Als Testsystem werden Normal Humane Dermalen Fibroblasten (NHDF) in einer so genannten Monolayer-Kultur in 96-Well-MTPs kultiviert, über einen definierten Zeitraum mit Testsubstanzen inkubiert und anschließend die Collagenzunahme […] über eine Färbemethode bestimmt.
Das Assay-Prinzip basiert auf der histologischen, spezifischen Anfärbung von löslichem Collagen (vorwiegend Collagen Typ I und III) mit Hilfe des Farbstoffes Sirius Red (Direct Red 80). Sirius Red ist ein anionischer Farbstoff an dessen Seitenketten Sulphonsäuregruppen angelagert sind. Diese Sulphonsäuregruppen reagieren mit den Seitenkettengruppen der im Collagen vorwiegend vorkommenden Aminosäuren (Prolin, Hydroxyprolin, Lysin und Hydroxylysin), wobei eine intakte Collagenstruktur gegeben sein muss. [drawing 1]
Als Vorlage für das Assay-Design dient die bei B.J.Walsh et al., Analytical Biochemistry 203, 187-190 (1992) beschriebene Vorgehensweise zur quantitativen Bestimmung von Collagen im 96-Well Maßstab.
Die Collagensynthese steigernde Wirkung der Testsubstanzen wird an in vitro gealterten (>8. Passage) NHDF in 96-Well Mikrotiterplatten (2*10^4 Zellen pro Well) getestet. Für jedes Prüfmuster muss zuvor ein geeignetes Lösungsmittel ermittelt werden, in dem eine Stocklösung des Prüfmusters angesetzt wird. Die Inkubationslösungen der Testsubstanzen werden anschließend in mit 0,2% BSA supplementiertem DMEM hergestellt. Mögliche Lösungsmittel sollten in allen Verdünnung der Inkubationslösung max. 0,2 %ig vorliegen. Die maximale Einsatzkonzentration der Testsubstanzen resultiert aus den in der Zytotoxizitäts-Untersuchung (Resazurin-Assay an 3T3 Maus Fibroblasten) gewonnen IC20-Werten und ist auf 0,1*IC20 festgelegt.
Nach einer 24h-igen Adaptionsphase der NHDF werden die Zellen für 48 h mit den Inkubationslösungen und entsprechenden Kontroll-Lösungen (Lösungsmittel und Blank) inkubiert (37°C, 5% CO2). […]

[1] abbreviates: Tabelle 2, Einsatzkonzentration 1.020 mg/ml.

Where “and” joins values, the source holds several entries; their conditions need not be identical. Equal values may be shown once.

For `O=C1O[C@H]([C@@H](O)CO)C(O)=C1OP(=O)(O)O` [Magnesium Ascorbylphosphat (Bio172), Magnesium Ascorbylphosphat], the “Collagensynthese Steigerung [%], bezogen auf unbehandelte Kontrolle” value (“Collagensynthese Steigerung [%]” below) (Tabelle 1, Einsatzkonzentration 0.362 mg/ml) is 66.97% and 67.44%.

Regarding `O=C1O[C@H]([C@@H](O)CO)C([O-])=C1OP(=O)([O-])[O-].O=C1O[C@H]([C@@H](O)CO)C([O-])=C1OP(=O)([O-])[O-].[Mg+2].[Mg+2].[Mg+2]` [Magnesium Ascorbylphosphat (Bio1300/1), Magnesium Ascorbylphosphat], under setting [1], the “Collagensynthese Steigerung [%]” value was found to be 141.13%.

For the compound `O=C1O[C@H]([C@@H](O)CO)C([O-])=C1OP(=O)([O-])[O-].[Na+].[Na+].[Na+]` [Natrium Ascorbylphosphat (Bio1586), Natrium Ascorbylphosphat], the “Collagensynthese Steigerung [%]” value under setting [1] is recorded as 144.57%.
